Earlier results as cited in US20180360817A1, “EXTENDED RELEASE OSMOTIC DOSAGE FORM COMPRISING HIGH METHYLPHENIDATE HYDROCHLORIDE LOAD” (CADILA HEALTHCARE LIMITED, priority 2015, published 2018).
Where two headings read alike, the source gives them in different places.

Q: Which results are given for `COC(=O)C(c1ccccc1)C1CCCCN1.Cl` (racemic) [Methylphenidate hydrochloride, d,l (racemic) methyl α-phenyl-2-piperidineacetate hydrochloride]?
A: Solubility (in acetone): slightly soluble; Solubility (in alcohol): soluble; Solubility (in chloroform): slightly soluble; Solubility (in methanol): freely soluble; Solubility (in water): freely soluble
